{
  "source": "patent US20220340665A1",
  "about": "“INHIBITOR AGAINST EXPRESSION OF IMMUNE CHECKPOINT MOLECULE” (RENASCIENCE INC., priority 2019, published 2022)",
  "key": {"[1]": {"test_system": "mouse colorectal cancer cell line (MC38)", "assay": "Size of subcutaneous MC38 tumor mass in mice (Experimental Example 11)", "assay_type": "in vivo, mice (C57BL6)", "details": "PAI-1 inhibitor 10 mg/kg orally daily 14 days, anti-PD1 antibody 15 μg i.p. every 3 days, 3 times, 14 and 21 days", "from_the_text": "Mice (C57BL6) were divided into 1) an untreated group (vehicle) (n=15), 2) a single-administration group of anti-PD1 antibody (anti-PD-1 Ab), 3) a single-administration group of PAI-1 inhibitor (PAI-1 inhibitor), and 4) a combination group of anti-PD1 antibody and PAI-1 inhibitor (anti-PD-1 Ab+PAI-1 inhibitor) (n=18 for 2) to 4)). Then, 5×10^5 cells of the mouse colorectal cancer cell line (MC38) were transplanted subcutaneously into each mouse. One week after transplantation, engraftment of more than 5 mm of a tumor mass in the major axis was confirmed. Subsequently, the PAI-1 inhibitor (10 mg/kg) was orally administered once daily to groups 3) and 4) above for a total of 14 consecutive days. For groups 2) and 4), 15 μg of anti-PD1 antibody was intraperitoneally administered every 3 days (3 times in total) from the same day as the administration day of the PAI-1 inhibitor. For the untreated group, physiological saline was orally administered. The size of the tumor mass was measured 2 weeks (14 days) and 3 weeks (21 days) after the transplantation (0 days)."}, "[2]": {"test_system": "regulatory T cells (Treg)", "assay": "Regulatory T cells in MC38 tumor mass by flow cytometry (Experimental Example 14)", "assay_type": "in vivo, mice (C57BL6)", "details": "oral administration for one week, vs vehicle", "experimental": "1) The untreated group and 3) the single-administration group of PAI-1 inhibitor (cancer-bearing mice) of Experimental Example 11, after tumor engraftment, were orally administered with physiological saline (vehicle) or the PAI-1 inhibitor for one week. Thereafter, the tumors were collected, the cells were stained with an anti-CD45 antibody, an anti-CD4 antibody, an anti-CD25 antibody, and an anti-foxp3 antibody, and the percentage of regulatory T cells (Treg) in the tumor mass was analyzed with a flow cytometer."}, "[3]": {"test_system": "mouse leukemia cell line (32Dp210)", "assay": "PD-L1 expression level by flow cytometry in 32Dp210 cells (Experimental Examples 2 and 3)", "assay_type": "cell-based", "details": "inhibitor 50 μM with rPAI-1 40 nM, 2 days, listed as PAI-1 inhibitor", "from_the_text": "In order to analyze the characteristics of cancer cells highly expressing PAI-1, a rouse leukemia cell line (obtained by transfecting 32D cells, i.e., a myelomonocytic progenitor cell line, with BCR-ABL; referred to below as “32Dp210”) was transfected with PAI-1 to produce cells overexpressing PAI-1 (32d PAI-1 OE). Next, in order to analyze the expression level of PD-L1, which is an ICM, in the cells, the cells were stained with an anti-PD-L1 antibody (clone name: 10F.G92) labeled with Allophycocyanin (APC) as a fluorescent dye, and subjected to flow cytometry. As a comparative control experiment, a 32Dp210 cell line without transfection of PAI-1 (wild-type cells: 32D WT) was analyzed in the same manner for the PD-L1 expression level.\nSpecifically, artificially produced recombinant PAI-1 (referred to below as “rPAI-1”; 40 nM) or a culture supernatant of the cells overexpressing PAI-1 (32d PAI-1 OE) prepared in Experimental Example 1 (PAI-1 OE sup; containing a high concentration of PAI-1) was added to 5×10^4 cells of a mouse leukemia cell line (32Dp210), and the cells were cultured on a 96-well plate at 37° C., 5% CO2, for 2 days. Next, the PD-L1 expression level was determined by flow cytometry in the same manner as in Experimental Example 1. As a comparative control experiment, the PD-L1 expression level in untreated mouse leukemia cells (control) was measured in the same manner. […]"}, "[4]": {"test_system": "human ovarian clear cell adenocarcinoma cell line (ES2)", "assay": "PD-L1 expression in tumor cells of ES2 tumor mass in nude mice (Experimental Example 9)", "assay_type": "in vivo", "details": "ES2 subcutaneous in nude mice; 10 mg/kg orally once daily, 7 days; vs vehicle", "experimental": "The efficacy of the PAI-1 inhibitor against human cancer cells (ovarian cancer cells) was studied in vivo. Specifically, 5×10^5 cells of a human ovarian clear cell adenocarcinoma cell line (ES2) were transplanted subcutaneously in nude mice. One week later, engraftment of more than 5 mm of tumor mass in the major axis was confirmed. Subsequently, the PAI-1 inhibitor was orally administered once daily at 10 mg/kg for a total of 7 days. On the next day of the final administration, the tumor mass was collected from the mice, chopped with scissors, suspended in a 0.025% collagenase solution (FUJIFILM Wako Pure Chemical Corporation), and treated at 37° C. for 2 hours to break cell-cell bonds. The cells obtained by enzymatic treatment were stained with an anti-PD-L1 antibody (clone name: 10F.G92) labelled with Allophycocyanin (APC), and the PD-L1 expression level in the tumor cells was determined with a flow cytometer. As a comparative control experiment, cells were collected also from the tumor mass in the same manner in terms of a mouse group to which only physiological saline (vehicle) was administered instead of the PAI-1 inhibitor, and the PD-L1 expression level in the tumor cells was determined with a flow cytometer."}, "[5]": {"test_system": "mouse leukemia cell line (32Dp210)", "assay": "Size of subcutaneous 32Dp210 tumor mass in mice (Experimental Example 10)", "assay_type": "in vivo, mice (C3H/HEJ)", "details": "32Dp210 subcutaneous, 10 mg/kg orally once daily, 7 days, n=2, listed as PAI-1 inhibitor", "experimental": "Specifically, 5×10^5 cells of a mouse leukemia cell line (32Dp210) were transplanted subcutaneously in mice (C3H/HEJ), and one week later, engraftment of more than 5 mm of a tumor mass in the major axis was confirmed. Subsequently, the PAI-1 inhibitor was orally administered once daily at 10 mg/kg for a total of 7 days. On the next day of the final administration, the size of the tumor mass ([…]) was measured. As a comparative control experiment, the size of the tumor mass was measured in the same manner in terms of a mouse group to which only physiological saline (vehicle) was orally administered instead of the PAI-1 inhibitor."}, "human PAI-1": {"target": "human PAI-1 (Homo sapiens, UniProt P05121)", "sequence (P05121 24-402)": "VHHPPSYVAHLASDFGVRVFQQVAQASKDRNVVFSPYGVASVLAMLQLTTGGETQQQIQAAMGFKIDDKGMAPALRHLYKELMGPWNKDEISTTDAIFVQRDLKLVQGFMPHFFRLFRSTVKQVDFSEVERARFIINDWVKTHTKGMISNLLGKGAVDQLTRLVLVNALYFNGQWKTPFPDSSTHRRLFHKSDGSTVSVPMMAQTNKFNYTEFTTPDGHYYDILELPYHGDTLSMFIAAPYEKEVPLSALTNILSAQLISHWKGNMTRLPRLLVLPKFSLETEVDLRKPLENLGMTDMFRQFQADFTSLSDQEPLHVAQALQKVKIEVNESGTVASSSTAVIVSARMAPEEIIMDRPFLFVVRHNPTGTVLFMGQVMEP", "assay": "PAI-1 inhibitory activity, t-PA with Spectrozyme t-PA chromogenic substrate (Reference Experimental Example 2)", "assay_type": "biochemical", "design": "purchased Molecular Innovations, Inc. (USA)", "details": "system without compound after 120 minutes = 100%", "experimental": "Subsequently, human-derived tissue plasminogen activator (t-PA) (manufactured by American Diagnostica, Inc. (USA); the same applies hereinafter) adjusted to 0.05 pmol/μL was added thereto, and the mixture was further incubated at 37° C. for 60 minutes. Then, 0.25 mM of Spectrozyme t-PA synthetic substrate (manufactured by American Diagnostica, Inc. (USA); the same applies hereinafter), which is a chromogenic substrate, was added. […]\nFree p-nitroaniline removed from the chromogenic substrate (Spectrozyme t-PA) by t-PA action was measured using a spectrophotometer at an absorbance of 405 nm at 20-minute intervals, for 120 minutes."}},
  "note": "“Also recorded” adds a separate entry of the source.",
  "data": [
    {"smiles": "O=C(Nc1ccc(Cl)cc1C(=O)[O-])c1cccc(-c2cccc3cccnc23)c1.[Na+]", "note": "[Example 68, 5-chloro-2-(((3-(quinolin-8-yl)phenyl)carbonyl)amino)sodium benzoate]", "values": [
      {"measurement": "size of the tumor mass", "setting": "[1]", "result": "significantly regressed; also recorded: tumor regression"},
      {"measurement": "percentage of regulatory T cells in the tumor", "setting": "[2]", "result": "reduced"},
      {"measurement": "PD-L1 expression induction by rPAI-1", "setting": "[3]", "result": "completely inhibited the induction; also recorded: completely suppressed"},
      {"measurement": "PD-L1 expression level in the tumor cells", "setting": "[4]", "result": "reduced"},
      {"measurement": "size of the tumor mass", "setting": "[5]", "result": "tumor mass disappearance; also recorded: loss of tumor mass"},
      {"measurement": "PAI-1 activity %", "setting": "human PAI-1; compound 10 μm (head)", "result": 2.1, "unit": "%"},
      {"measurement": "PAI-1 activity %", "setting": "human PAI-1; compound 25 μm (head)", "result": 2.4, "unit": "%"}
    ]}
  ]
}
